In patent publication US4346076A, “Bis-tetrazoylmethyl substituted cephalosporin antibiotics” (Eli Lilly and Company, priority 1980, dated 1982):
≈ marks a conversion by molar mass, not a printed value. Where two headings read alike, the source gives them in different places.

Tests used:
Test in all cases: in vitro antibacterial activity, agar dilution
Type in all cases: cell-based
[1] = tested on: Streptococcus Group A; details: strain C203; read-out: Minimum Inhibitory Concentration
Source text: (§1) The bis-tetrazol-thiomethyl substituted cephalosporins of this invention are broad spectrum antibiotics which inhibit the growth of both gram positive and gram negative microorganisms which are pathogenic to man and animals. […] The following Table 2 lists the minimum inhibitory concentrations of representative compounds of the invention.
(§2) The data in TABLE 2 were obtained in the agar dilution test method using Mueller-Hinton agar containing two percent Supplement C (Difco). Serial two-fold dilutions were run with the highest concentration on test at 128 mcg/ml.

[2] = tested on: Citrobacter freundii; details: strain CF17, read-out: Minimum Inhibitory Concentration
Source text: as §1, §2

[3] = tested on: Klebsiella sp.
Source text: as §1, §2

[4] = tested on: Streptococcus pneumoniae; details: strain PARK, read-out: Minimum Inhibitory Concentration
Source text: as §1, §2

[5] = tested on: Pseudomonas aeruginosa
Source text: as §1, §2

[6] = tested on: Streptococcus Group D; details: read-out: Minimum Inhibitory Concentration
Source text: as §1, §2

[7] = tested on: Haemophilus influenzae; details: Haemophilus influenzae, read-out: Minimum Inhibitory Concentration
Source text: as §1, §2

[8] = tested on: Proteus inconstans; details: Providencia alcalifaciens; strain PR33; read-out: Minimum Inhibitory Concentration
Source text: as §1, §2

[9] = tested on: Staphylococcus aureus
Source text: as §1, §2

[10] = tested on: Serratia marcescens
Source text: as §1, §2

[11] = tested on: Proteus morganii; details: Morganella morganii; strain PR15; read-out: Minimum Inhibitory Concentration
Source text: as §1, §2

[12] = tested on: Staphylococcus epidermidis
Source text: as §1, §2

[13] = tested on: Enterobacter cloacae
Source text: as §1, §2

[14] = tested on: Shigella sonnei; details: strain N9, read-out: Minimum Inhibitory Concentration
Source text: as §1, §2

[15] = tested on: Enterobacter aerogenes; details: Klebsiella aerogenes, read-out: Minimum Inhibitory Concentration
Source text: as §1, §2

[16] = tested on: Bordetella bronchoseptica; details: strain 16, read-out: Minimum Inhibitory Concentration
Source text: as §1, §2

[17] = tested on: Escherichia coli
Source text: as §1, §2

[18] = tested on: Proteus rettgeri; details: Providencia rettgeri, read-out: Minimum Inhibitory Concentration
Source text: as §1, §2

[19] = tested on: Salmonella sp.
Source text: as §1, §2

[20] = strain KAE, read-out: Minimum Inhibitory Concentration
[21] = strain X26, read-out: Minimum Inhibitory Concentration
[22] = strain Ps18, read-out: Minimum Inhibitory Concentration
[23] = strain X239, read-out: Minimum Inhibitory Concentration
[24] = strain X528, read-out: Minimum Inhibitory Concentration
[25] = read-out: Minimum Inhibitory Concentration
[26] = strain V41, read-out: Minimum Inhibitory Concentration
[27] = strain X1.1, read-out: Minimum Inhibitory Concentration
[28] = strain X400, read-out: Minimum Inhibitory Concentration
[29] = strain SE3, read-out: Minimum Inhibitory Concentration
[30] = strain X93, read-out: Minimum Inhibitory Concentration
[31] = strain EPI1, read-out: Minimum Inhibitory Concentration
[32] = strain EPI2, read-out: Minimum Inhibitory Concentration
[33] = strain 265A, read-out: Minimum Inhibitory Concentration
[34] = strain EB5, read-out: Minimum Inhibitory Concentration
[35] = strain EC14, read-out: Minimum Inhibitory Concentration
[36] = strain N10, read-out: Minimum Inhibitory Concentration
[37] = strain TEM, read-out: Minimum Inhibitory Concentration
[38] = strain 1335, read-out: Minimum Inhibitory Concentration
[39] = strain X514, read-out: Minimum Inhibitory Concentration

SMILES	MIC [1]	MIC [2]	MIC [3, 20]	MIC [3, 21]	MIC [4]	MIC [5, 22]	MIC [5, 23]	MIC [5, 24]	MIC ([6]; strain 9960)	MIC ([6]; strain X66)	MIC [8]	MIC [9, 25]	MIC [9, 26]	MIC [9, 27]	MIC [9, 28]	MIC [10, 29]	MIC [10, 30]	MIC [11]	MIC [12, 31]	MIC [12, 32]	further results
CO/N=C(\C(=O)N[C@@H]1C(=O)N2C(C(=O)O)=C(CSc3nnn(Cc4nnn[nH]4)n3)CS[C@H]12)c1csc(N)n1 [G, syn 7β-[α-methoximino-α-(2-amino-1,3-thiazol-4-yl)-acetamido]-3-[2-(1H-tetrazol-5-ylmethyl)-2H-tetrazol-5-ylthiomethyl]-3-cephem-4-carboxylic acid]	0.03 µg/mL (≈ 0.0518 µM)	64 µg/mL (≈ 110 µM)	8 µg/mL (≈ 13.8 µM)	0.125 µg/mL (≈ 0.216 µM)	0.03 µg/mL (≈ 0.0518 µM)	32 µg/mL (≈ 55.2 µM)	16 µg/mL (≈ 27.6 µM)	16 µg/mL (≈ 27.6 µM)	> 128 µg/mL	> 128 µg/mL	1 µg/mL (≈ 1.73 µM)	32 µg/mL (≈ 55.2 µM)	8 µg/mL (≈ 13.8 µM)	4 µg/mL (≈ 6.9 µM)	> 128 µg/mL	2 µg/mL (≈ 3.45 µM)	0.25 µg/mL (≈ 0.431 µM)	0.5 µg/mL (≈ 0.863 µM)	32 µg/mL (≈ 55.2 µM)	64 µg/mL (≈ 110 µM)	MIC ([7]; strain 251, resistant strain): 0.06 µg/mL (≈ 0.104 µM); MIC ([7]; strain Brun, sensitive strain): 0.06 µg/mL (≈ 0.104 µM); MIC [13, 33]: 64 µg/mL (≈ 110 µM); MIC [13, 34]: 2 µg/mL (≈ 3.45 µM); MIC [14]: 2 µg/mL (≈ 3.45 µM); MIC ([15]; strain C32): 0.25 µg/mL (≈ 0.431 µM); MIC ([15]; strain EB17): 0.25 µg/mL (≈ 0.431 µM); MIC ([15]; strain X68): 0.06 µg/mL (≈ 0.104 µM); MIC [16]: 64 µg/mL (≈ 110 µM); MIC [17, 35]: 0.125 µg/mL (≈ 0.216 µM); MIC [17, 36]: 0.25 µg/mL (≈ 0.431 µM); MIC [17, 37]: 0.125 µg/mL (≈ 0.216 µM); MIC ([18]; strain C24): 2 µg/mL (≈ 3.45 µM); MIC ([18]; strain PR7): 0.03 µg/mL (≈ 0.0518 µM); MIC [19, 38]: 0.5 µg/mL (≈ 0.863 µM); MIC [19, 39]: 0.125 µg/mL (≈ 0.216 µM)
O=CO[C@@H](C(=O)N[C@@H]1C(=O)N2C(C(=O)O)=C(CSc3nnnn3Cc3nnn[nH]3)CS[C@H]12)c1ccccc1 [C]	0.5 µg/mL (≈ 0.895 µM)	> 128 µg/mL	> 128 µg/mL	2 µg/mL (≈ 3.58 µM)	0.25 µg/mL (≈ 0.448 µM)	> 128 µg/mL	> 128 µg/mL	> 128 µg/mL	128 µg/mL (≈ 229 µM)	> 128 µg/mL	2 µg/mL (≈ 3.58 µM)	16 µg/mL (≈ 28.6 µM)	8 µg/mL (≈ 14.3 µM)	1 µg/mL (≈ 1.79 µM)	128 µg/mL (≈ 229 µM)	> 128 µg/mL	32 µg/mL (≈ 57.3 µM)	2 µg/mL (≈ 3.58 µM)	8 µg/mL (≈ 14.3 µM)	32 µg/mL (≈ 57.3 µM)	MIC ([7]; strain 251, resistant strain): 4 µg/mL (≈ 7.16 µM); MIC ([7]; strain Brun, sensitive strain): 4 µg/mL (≈ 7.16 µM); MIC [13, 33]: > 128 µg/mL; MIC [13, 34]: 128 µg/mL (≈ 229 µM); MIC [14]: 1 µg/mL (≈ 1.79 µM); MIC ([15]; strain C32): 4 µg/mL (≈ 7.16 µM); MIC ([15]; strain EB17): 2 µg/mL (≈ 3.58 µM); MIC ([15]; strain X68): 0.25 µg/mL (≈ 0.448 µM); MIC [16]: 16 µg/mL (≈ 28.6 µM); MIC [17, 35]: 0.25 µg/mL (≈ 0.448 µM); MIC [17, 36]: 2 µg/mL (≈ 3.58 µM); MIC [17, 37]: 8 µg/mL (≈ 14.3 µM); MIC ([18]; strain C24): 0.5 µg/mL (≈ 0.895 µM); MIC ([18]; strain PR7): 4 µg/mL (≈ 7.16 µM); MIC [19, 38]: 2 µg/mL (≈ 3.58 µM); MIC [19, 39]: 1 µg/mL (≈ 1.79 µM)
CO[C@@]1(NC(=O)Cc2cccs2)C(=O)N2C(C(=O)O)=C(CSc3nnnn3Cc3nnn[nH]3)CS[C@@H]21 [A, 7-(2-thienylacetamido)-7-methoxy-3-[1-(1H-tetrazole-5-ylmethyl)-1H-tetrazole-5-ylthiomethyl]-3-cephem-4-carboxylic acid]	0.5 µg/mL (≈ 0.908 µM)	> 128 µg/mL	4 µg/mL (≈ 7.26 µM)	1 µg/mL (≈ 1.82 µM)	4 µg/mL (≈ 7.26 µM)	> 128 µg/mL	> 128 µg/mL	> 128 µg/mL	> 128 µg/mL	64 µg/mL (≈ 116 µM)	4 µg/mL (≈ 7.26 µM)	8 µg/mL (≈ 14.5 µM)	2 µg/mL (≈ 3.63 µM)	2 µg/mL (≈ 3.63 µM)	16 µg/mL (≈ 29.1 µM)	64 µg/mL (≈ 116 µM)	16 µg/mL (≈ 29.1 µM)	64 µg/mL (≈ 116 µM)	16 µg/mL (≈ 29.1 µM)	8 µg/mL (≈ 14.5 µM)	MIC ([7]; strain 76, resistant strain): 0.25 µg/mL (≈ 0.454 µM); MIC ([7]; strain C.L., sensitive strain): 0.25 µg/mL (≈ 0.454 µM); MIC [13, 33]: > 128 µg/mL; MIC [13, 34]: > 128 µg/mL; MIC [14]: 8 µg/mL (≈ 14.5 µM); MIC ([15]; strain C32): > 128 µg/mL; MIC ([15]; strain EB17): > 128 µg/mL; MIC ([15]; strain X68): 4 µg/mL (≈ 7.26 µM); MIC [16]: > 128 µg/mL; MIC [17, 35]: 4 µg/mL (≈ 7.26 µM); MIC [17, 36]: 8 µg/mL (≈ 14.5 µM); MIC [17, 37]: 4 µg/mL (≈ 7.26 µM); MIC ([18]; strain C24): 1 µg/mL (≈ 1.82 µM); MIC ([18]; strain PR7): 4 µg/mL (≈ 7.26 µM); MIC [19, 38]: 2 µg/mL (≈ 3.63 µM); MIC [19, 39]: 1 µg/mL (≈ 1.82 µM)
